Experimental findings from publication PMC8619920, “New Polyesterified Ursane Derivatives from Leaves of Maesa membranacea and Their Cytotoxic Activity” (Molecules, 2021) are described below.

Format in all cases: cell-based
The subject of experiment [1] is PNT-2 human normal prostate epithelium cells. Kind of experiment: Cytotoxicity, LDH assay, PNT-2 cells. The settings on record: Homo sapiens, PNT2; 24 h treatment, 5–100 μg/mL. As to the method: (§1) Cytotoxic activity was tested on human cancer and normal cells, grouped in three panels, namely: prostate, skin and gastrointestinal. The prostate panel consisted of prostate cancer cell lines Du145 (ATCC HTB-81) and PC3 (ATCC CRL-1435), and prostate epithelial cells PNT-2 (ECACC 95012613). Melanoma cell lines A375 (ATCC CRL-1619) and HTB140 (ATCC Hs 294T) together with skin keratinocytes HaCaT (obtained as a kind gift of prof. Marta Michalik, Department of Cell Biology, Jagiellonian University, Kraków, Poland) were included into the skin panel. The gastrointestinal panel of cells comprised colon cancer cell lines Caco-2 (ATCC HTB-37) and HT29 (ATCC HTB-38). Du145 cells were grown in Modified Eagle’s Medium with low (1.0 g/L) glucose concentration, HT29, PC3 and PNT-2 cells in Dulbecco’s Modified Eagle’s Media: F12 HAM Nutrient Mixture, Caco-2 in Modified Eagle’s Medium with NEAA (no-essential amino acids) while melanoma cells and keratinocytes were maintained in Modified Eagle’s Medium with high (4.5 g/L) glucose concentration. The culture media (all supplied by Sigma-Aldrich Co.; St. Louis, MO, USA) contained antibiotics and 10% fetal bovine serum (FBS). All cultures were maintained at 37 °C, in a humidified, 5% CO2 containing, atmosphere.
(§2) The examined triterpenes were diluted in the culture media from freshly made stock solutions in MeOH (10 mg/mL) to the working concentrations (from 0 to 100 μg/mL).
(§3) Cell viability was determined as it was described previously. Cells suspended in the nutrient medium were transferred into 96-well microtiter plates (density 1.5 × 10^4 per well), and preincubated for 24 h (37 °C, 5% CO2). Then, the culture medium was replaced with the medium containing different concentrations of 1 or 2 (1–100 μg/mL). After 24 h of incubation, viability of the cells was determined using colorimetric lactate dehydrogenase (LDH) assay, in comparison to the controls to which corresponding aliquots of MeOH diluted with culture media were added. Cells grown in the medium without the tested compounds were used as control I (negative) and the positive control (control II) was obtained by incubation of the cells in the medium containing 1% Triton X-100. LDH released from the damaged cells into the cell culture medium was quantified by measuring the absorbance at 490 nm using Synergy II Biotek (BioTek Instruments, Winooski, VT, USA) microplate reader. Cytotoxicities of the examined compounds were calculated as follows: [(absorbance of the tested sample − absorbance of control I)/(absorbance of control II − absorbance of control I)] × 100. Results were means of three independent measurements (± SD). Doxorubicin (Ebewe Pharma GmbH., Unterach, Austria) was used as a reference cytostatic drug. The IC50 values were determined by plotting the percentage viability of the cells versus concentration and the adequate calculations made using AAT Bioquest website program (https://www.aatbio.com/tools/ic50-calculator, accessed on 29 October 2021).

The subject of experiment [2] is DU145 human prostate carcinoma cells. Kind of experiment: Cytotoxicity, LDH assay, DU145 cells. The settings on record: Homo sapiens, DU-145, 24 h, 24 h treatment, 5–100 μg/mL. As to the method: as §1, §2, §3
For experiment [3], the system named is PC3 human prostate adenocarcinoma cells. Kind of experiment: Cytotoxicity, LDH assay, PC3 cells. The following applies: Homo sapiens, PC-3, 24 h, 24 h treatment, 5–100 μg/mL. As to the method: as §1, §2, §3
Experiment [4] relates to A375 human malignant melanoma cells. Kind of experiment: Cytotoxicity, LDH assay, A375 cells. The settings on record: Homo sapiens, A-375; 24 h treatment, 5–100 μg/mL. The procedure:
as §1, §2, §3

Experiment [5] has as its system HT29 human colon adenocarcinoma cells. Kind of experiment: Cytotoxicity, LDH assay, HT29 cells. The following applies: Homo sapiens, HT-29; 24 h treatment, 5–100 μg/mL. The procedure:
as §1, §2, §3

Experiment [6] deals with Caco-2 human colon adenocarcinoma cells. Description: Cytotoxicity, LDH assay, Caco-2 cells. The following applies: Homo sapiens, Caco-2, 24 h, 24 h treatment, 5–100 μg/mL. The procedure: as §1, §2, §3

With `COc1cccc2c1C(=O)c1c(O)c3c(c(O)c1C2=O)C[C@@](O)(C(=O)CO)C[C@@H]3O[C@H]1C[C@H](N)[C@H](O)[C@H](C)O1` [Doxorubicin, reference compound], the IC50 in experiment [1] was 1.38 µg/mL; in experiment [2] it was 3.18 µg/mL; in experiment [3] it was greater than 50 µg/mL; in experiment [4] it was 0.59 µg/mL; in experiment [5] it was 1.53 µg/mL; in experiment [6], 3.44 µg/mL.
